The values below come from PMC6152407, “Molecular Mechanisms Underlying Inhibitory Binding of Alkylimidazolium Ionic Liquids to Laccase” (Molecules : A Journal of Synthetic Chemistry and Natural …, 2017).

Data set [1] deals with Myceliophthora thermophila (Mth) laccase. Description: Inhibition kinetics of laccase/ABTS oxidation (Lineweaver–Burk). It counts as biochemical. The settings on record: laccase/ABTS oxidation at pH 3; read-out: competitive inhibition constant Kic. The method, then: (§1) Reaction velocities (vo) were determined by mixing 50 μL of the properly diluted enzyme, 50 μL of substrate solution, and 2.4 mL of the media containing phosphate–citrate buffer (30 mM) and ILs in a 1 cm × 1 cm × 4 cm quartz colorimetric cell. […] All the reported data were averaged from at least three parallel measurements.
A series of vo were measured under varied concentrations of substrate ([S]) and IL ([I]). The Lineweaver–Burk diagrams were then constructed by plotting 1/vo against 1/[S] to estimate Km and Vmax according to Equation (1). The features of inhibition by different ILs were also deduced from the diagrams. Ki was correspondingly calculated from Equations (2), (3) or (4).
(2) (Competitive) 1/v0=KM/Vmax[S](1+[I]/Kic)+ 1/Vmax

The subject of data set [2] is Myceliophthora thermophila (Mth) laccase. It counts as biochemical. The method, then:
as §1

On the set-up of data set [3]: method as in PMID 26556325. The settings on record: 80% aqueous solution; cited from earlier work.
The test system of the next data set is Tve laccase. The settings on record: ABTS, pH 3, cited from earlier work.
Data set [4] can be described thus: Stability of ABTS cation radicals in ILs/buffer media. The settings on record: 30 mM buffer without IL. The method, then: ABTS cation radicals (ABTS^+) were obtained from the oxidation of ABTS (10 mmol/L) with the laccase (50 U/L) in […] phosphate–citrate buffer (pH 3) at 40 °C for 2 h. Then, the reaction mixtures were centrifuged in an ultrafiltration tube (molecular weight cutoff 10 kDa; Millipore, Bedford, MA, USA) at 9000× g for 10 min). Enzymes and polymerized substances were removed. The oxidized products were incubated with buffer (30 mM, pH 2~7) and ionic liquids (50 mM) at 25 °C for 6 min. The concentration of each product was monitored by the spectrophotometer.

In the case of `CCCCCCCCCCn1cc[n+](C)c1` [[Dmim]Cl], the Ki in data set [1] is 180 µM. Moreover, in data set [2] (50 mM IL, ABTS, pH 3 (Figure 2d)), the “laccase inactivation” value is given as “almost completely inactivated”. For the molecule `CC(C)=O` [acetone], the “time for 50% reduction of ABTS^+” value in data set [3] is recorded as no more than 7 min. As for `CCCCCCCC[n+]1ccn(C)c1` [[Omim]Cl], the Ki in data set [1] was 2150 µM.

For `[Cl-].[Na+]` [NaCl], the “uncompetitive constant Kiu” value in the data set on Tve laccase is given as 18.1 mM. For the same molecule, at Tve laccase (read-out: competitive constant Kic), the Ki is 350 µM.

As to ABTS^+, the “half-life of ABTS^+” value in data set [4] (pH 2) was 6.17 h; in data set [4] (pH 7) it was 0.728 h. As to `CCCCn1cc[n+](C)c1.[Cl-]` [[Bmim]Cl], in the data set on Mth laccase, the “initial activity retained by re-dissolved complex” value is reported as 65%. Moreover, in data set [2] (pH 3), the retained laccase activity was 65~75%. With KCl, the “activity loss compared with other salts” value in data set [2] (pH 3) was “more activity loss than alkylimidazolium chlorides”.
